Measured values reported in patent publication US5075327A, “Antipsoriatic agents” (Hoffmann-La Roche Inc., priority 1988, dated 1991).
Like-named read-outs stand apart in the source and are kept apart here.

How the values were obtained:
human keratinocyte cells = assay: Toxicity to keratinocytes in the proliferation assay; type: cell-based; details: 10^-6 M; keratinocyte cells in vitro
[1] = test system: cholesterol biosynthesis in HepG2 cells; assay: Inhibition of cholesterol biosynthesis in HepG2 cells (3H2O incorporation into cholesterol); type: cell-based; details: for IC50: Homo sapiens
Procedure: HepG2 cells are maintained in 175 cm^2 T flasks in Darlington Medium supplemented with 10% fetal bovine serum (FBS). Darlington Medium consists of 3 parts Minimal Essential Medium, 1 part Waymouth's MAB87/3 medium and 3×10^-8 M sodium selenite. This medium is supplemented with 100 U/ml penicillin, 100 ug/ml streptomycin and 2.5 ug/ml Fungizone. In order to establish optimal conditions for the whole cell cholesterol biosynthesis assay, preliminary experiments were performed. 0.25, 0.5, 0.75 or 1×10^6 cells were seeded into 6 well cluster plates in 2 ml of fully supplemented Darlington Medium. The serum supplemented medium was aspirated after 72 hours and replaced with serum free Darlington Medium with antibiotics. After 24, 48 or 72 hours serum free, the cells received either 0.5 or 1 mCi ^3 H2 O/ml medium. This medium was aspirated after 24 hours and the cells were washed twice with phosphate buffered saline. The cells were frozen overnight at -20° C. after which they were harvested from the wells with 1 ml of trypsin-EDTA. Extracted lipids were separated on an HPLC system; cholesterol peaks were collected and counted in a scintillation counter. Results are expressed as the dpm ^3 H2 O incorporated into cholesterol.
In the screening assay the cells received compounds at various concentrations concommitantly with ^3 H2 O. When ethanol was the vehicle, the final ethanol concentration was 0.5%, and control wells with that concentration of ethanol were used in each experiment. Results are expressed as the percent dpm ^3 H2 O incorporated into cholesterol in treated vs control wells. IC50 values are calculated using a linear regression analysis.

human keratinocytes = assay: Inhibition of proliferation of cultured human keratinocytes (cell count by Coulter Counter); type: cell-based; details: for inhibition at 1 µM / inhibition at 0.1 µM / inhibition at 0.01 µM: Homo sapiens, Keratinocyte; for inhibition at 1 µM: 10^-6 M; for inhibition at 0.1 µM: 10^-7 M; for inhibition at 0.01 µM: 10^-8 M; for Percent Inhibition on Keratinocyte Proliferation: ^ 10^-10 M
Procedure: Human neonatal foreskins were collected by circumcision and placed into tubes containing DMEM media. Upon arrival at the laboratory the foreskins were mechanically trimmed of excess dermis and treated with a solution of trypsin/EDTA (0.05%/0.02%) at 4° C. overnight. The epidermis was stripped from the dermis, agitated in buffered saline to remove basal keratinocytes and the stratum corneum buffer was removed. The separated cells were centrifuged, resuspended in media, counted and the cells were plated onto a plain plastic material layer.
The keratinocytes were plated at a density of approximately about 10^5 cells/cm^2 in 35 cm^2 dishes. The cells were grown in keratinocyte growth media (KGM-modified MCDB 153 containing […] by Clonetics of Boulder, Colo.) according to protocols originally developed by Boyce, S. T. and Ham, R. G., J. of Tissue Culture Meth. 9:83-93 (1985). The cells were grown for 5-10 days and changed every 2-3 days with keratinocyte growth media with 1.5 mM CaCl2 (hereinafter KGM/1.5 mM CaCl2) until cells reached a 75% confluency by visual observation. All the cultures were incubated in a humidified atmosphere of 5% CO2 at 37° C.
To establish keratinocyte cell cultures as antiproliferative assays, cells prepared as described in the foregoing were washed with PBS and removed from the culture surface with a solution of trypsin/EDTA (0.25%/0.03%). The removed cells were then centrifuged resuspended in the KGM/1.5 mM CaCl2 and counted. The cells were then distributed to 6 well plates at 100,000 cells per well as described in the foregoing. […] After 24-48 hours the cells were changed into KGM/1.5 mM CaCl2. Test compounds were added one to two days later and the cultures maintained for seven days. The media was changed every 2-3 days.
Solutions of the test compounds were prepared as follows: 1 milligram quantities were received in amber glass vials, and stored at -20° C. Sufficient 100% ethanol was added directly to vials to obtain a millimolar solution that was subsequently aliquoted into small amber vials, overlayed with argon gas and stored at -20° C. Each stock solution was thawed once, used and discarded. Aliquots from the stock solutions were diluted directly into medium and then serially diluted from micromolar to 10^-12 M concentrations. Dilutions from 10^-8 M to 10^-12 M had ethanol added for a final concentration of 0.1%. Stock solutions were used within one month. Control cultures were treated with 0.1% ethanol.
For each experiment every culture well received the same number of cells from the same culture source. At the termination of the experiment the number of cells per was determined by the following procedure. Wells were washed twice with PBS and then incubated for approximately 10-20 minutes at 37° C. with a trypsin/EDTA solution (0.25%/0.03%). PBS plus 0.1% […] was added and the cells were suspended. An aliquot of the cells was placed into isotonic buffered saline and counted on an electronic particle counter (e.g. Coulter Counter® device by Coulter Electronics of Hialeah, Fla.).
For statistical analysis, the mean was calculated for all wells in each treatment group. Standard error was determined by nonbiased analysis using a value for the number of wells in each group, preferably N=3.
Quantification of proliferation was done by enumerating the number of keratinocyte cells in each well using the Coulter Counter®. Results shown in Table 1 below show the percent reduction or inhibition of keratinocyte cells calculated for each of 4 concentrations of the compounds tested according to the formula: [formula]
Each compound was tested in triplicate. The control (ETOH), as noted above, was 0.1% ethanol.

cholesterol biosynthesis = details: U.S. Pat. No. 4,450,171, col. 1, lines 43-51; cited from earlier work
[2] = 168 h, 7 days, N = 3, read-out: Percent Inhibition on Keratinocyte Proliferation

CC[C@H](C)C(=O)O[C@H]1CCC=C2C=CC[C@H](CC[C@@H]3C[C@@H](O)CC(=O)O3)[C@]21C [Compound A, [4R-(4α,6β),6[1S-[1α,8β(S), 8aα]]]-6-[2-[1,2,6,7,8,8a-hexahydro-8a-methyl-8-(2-methyl-1-oxo-butoxy)-1-naphthalenyl]-ethyl]tetrahydro-4-hydroxy-2H-pyran-2-one]
toxicity to the cells (human keratinocyte cells): without toxicity to the cells | cholesterol biosynthesis inhibition as compared to mevinolin ([1]; HepG2 cells, Tests I and II): exhibited cholesterol biosynthesis inhibition | IC50 ([1]; HepG2, Test I): 47 nM | IC50 ([1]; HepG2, Test II): 3810 nM | inhibition at 1 µM (human keratinocytes; [2]): 17.1% | inhibition at 0.1 µM (human keratinocytes; [2]): 10% | inhibition at 0.01 µM (human keratinocytes; [2]): 8.24% | inhibition at 1 µM (human keratinocytes; read-out: inhibition rate of proliferation of keratinocyte cells): ~20% | Percent Inhibition on Keratinocyte Proliferation (human keratinocytes; 7 days, N = 3): 20.98%

CC(=O)O[C@H]1CCCC2=CCC[C@H](CCC=O)[C@]21C [Compound B, [1S-(1α,8β,8aβ)]-8-(2-formylethyl)-8a-methyl-1,2,3,4,6,7,8,8a-octahydro-1-naphthalenol-acetate]
inhibition at 1 µM (human keratinocytes; [2]): 19.5% | inhibition at 0.1 µM (human keratinocytes; [2]): 31.4% | inhibition at 0.01 µM (human keratinocytes; [2]): 22.9% | Percent Inhibition on Keratinocyte Proliferation (human keratinocytes; 7 days, N = 3): 4.52% | inhibition of cell proliferation relative to compound A (human keratinocytes; conclusion in words): slightly greater rate than compound A

CCC(C)C(=O)OC1CC(C)C=C2C=CC(C)C(CCC3CC(O)CC(=O)O3)C21 (centres unmarked) [mevinolin, reference compound]
activity in inhibiting cholesterol biosynthesis among the natural mevinolin compounds (cholesterol biosynthesis): most active member | IC50 ([1]; HepG2, Test I): 20 nM | IC50 ([1]; HepG2, Test II): 640 nM
